Legend:
[1] = tested on: SpNanC; test: Substrate specificity assay of SpNanC; conditions: for Percentage conversion (%) by SpNanC: sialoside substrate 0.3 mM, SpNanC (2 μg), Tris-HCl pH 7.0, 30 min, 37° C.; for Cleavage by SpNanC, yield: reactions using 3 μg of SpNanC
[2] = target: SpNanB (Streptococcus pneumoniae serotype 4, UniProt Q54727, E68D/K536E/K577E/N393D/S59P); test: Substrate specificity of SpNanB; conditions: pNP-tagged α2-3-linked sialosides
Sequence of SpNanB (Q54727 30-697 S59P/E68D/N393D/K536E/K577E): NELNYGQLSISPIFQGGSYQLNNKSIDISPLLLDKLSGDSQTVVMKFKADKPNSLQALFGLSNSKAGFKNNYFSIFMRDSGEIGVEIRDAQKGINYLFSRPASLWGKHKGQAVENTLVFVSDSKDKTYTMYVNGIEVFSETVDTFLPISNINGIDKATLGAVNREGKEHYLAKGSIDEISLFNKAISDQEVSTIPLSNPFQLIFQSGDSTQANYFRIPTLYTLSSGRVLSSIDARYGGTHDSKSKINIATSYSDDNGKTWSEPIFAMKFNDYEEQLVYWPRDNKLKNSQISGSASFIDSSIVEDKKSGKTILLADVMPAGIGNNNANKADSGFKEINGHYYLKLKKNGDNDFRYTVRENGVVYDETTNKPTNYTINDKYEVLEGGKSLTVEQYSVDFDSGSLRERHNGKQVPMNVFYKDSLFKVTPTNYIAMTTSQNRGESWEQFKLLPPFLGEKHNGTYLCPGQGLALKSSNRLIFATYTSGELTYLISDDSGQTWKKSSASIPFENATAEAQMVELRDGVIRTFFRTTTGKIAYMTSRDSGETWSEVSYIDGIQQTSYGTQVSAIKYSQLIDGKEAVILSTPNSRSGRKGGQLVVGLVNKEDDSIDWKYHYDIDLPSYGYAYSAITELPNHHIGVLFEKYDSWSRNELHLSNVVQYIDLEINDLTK

| SMILES | Percentage conversion (%) by SpNanC [1] [%] | Recognition by SpNanB (substrate specificity) [2] | Cleavage by SpNanC, yield [1] [%] |
| --- | --- | --- | --- |
| O=C(O)[C@@]1(O[C@H]2[C@@H](O)[C@@H](CO)O[C@@H](Oc3ccc([N+](=O)[O-])cc3)[C@@H]2O)C[C@H](O)[C@@H](F)[C@H]([C@H](O)[C@H](O)CO)O1 [Kdn5Fα2-3GalβpNP] | 0.48 ± 0.00 | − (− represents <20% conversion) | – |
| [N-]=[N+]=NC1C(O)CC(OC2C(O)C(CO)OC(Oc3ccc([N+](=O)[O-])cc3)C2O)(C(=O)O)OC1C(O)C(O)CO (stereo not drawn) [Kdn5N3α2-3GalβpNP] | 0.32 ± 0.45 | − (− represents <20% conversion) | – |
| CO[C@H]1[C@H]([C@H](O)[C@H](O)CO)O[C@](O[C@H]2[C@@H](O)[C@@H](CO)O[C@@H](Oc3ccc([N+](=O)[O-])cc3)[C@@H]2O)(C(=O)O)C[C@@H]1O [Kdn5OMe α2-3GalβpNP, Kdn5OMeα2-3GalβpNP] | 1.53 ± 1.02 | − (− represents <20% conversion) | – |
| O=C(O)C1(OC2C(O)C(CO)OC(Oc3ccc([N+](=O)[O-])cc3)C2O)CC(O)CC(C(O)C(O)CO)O1 (centres unmarked) [Kdn5deoxyα2-3GalβpNP] | 5.31 ± 0.23 | − (− represents <20% conversion) | – |
| O=C(O)[C@]1(O[C@H]2[C@@H](O)[C@@H](CO)O[C@@H](Oc3ccc([N+](=O)[O-])cc3)[C@@H]2O)C[C@H](O)[C@@H](O)[C@H]([C@H](F)[C@H](O)CO)O1 [Kdn7Fα2-3GalβpNP] | 0.56 ± 0.11 | − (− represents <20% conversion) | – |
| [N-]=[N+]=NC(C(O)CO)C1OC(OC2C(O)C(CO)OC(Oc3ccc([N+](=O)[O-])cc3)C2O)(C(=O)O)CC(O)C1O (stereo not drawn) [Kdn7N3α2-3GalβpNP] | 4.50 ± 0.45 | − (− represents <20% conversion) | – |
| CO[C@@H]([C@@H]1O[C@](O[C@H]2[C@@H](O)[C@@H](CO)O[C@@H](Oc3ccc([N+](=O)[O-])cc3)[C@@H]2O)(C(=O)O)C[C@H](O)[C@H]1O)[C@H](O)CO [Kdn7OMeα2-3GalβpNP] | 23.4 ± 3.3 | − (− represents <20% conversion) | 23 |
| O=C(O)C1(OC2C(O)C(CO)OC(Oc3ccc([N+](=O)[O-])cc3)C2O)CC(O)C(O)C(CC(O)CO)O1 (centres unmarked) [Kdn7deoxyα2-3GalβpNP] | 10.1 ± 0.0 | − (− represents <20% conversion) | 10 |
| O=C(O)C1(OC2C(O)C(CO)OC(Oc3ccc([N+](=O)[O-])cc3)C2O)CC(O)C(O)C(C(O)C(O)CF)O1 (centres unmarked) [Kdn9Fα2-3GalβpNP] | 3.70 ± 1.14 | − (− represents <20% conversion) | – |
| COCC(O)C(O)C1OC(OC2C(O)C(CO)OC(Oc3ccc([N+](=O)[O-])cc3)C2O)(C(=O)O)CC(O)C1O (centres unmarked) [Kdn9OMeα2-3GalβpNP] | 4.02 ± 1.36 | − (− represents <20% conversion) | – |
| O=C(O)[C@]1(O[C@H]2[C@@H](O)[C@@H](CO)O[C@@H](Oc3ccc([N+](=O)[O-])cc3)[C@@H]2O)C[C@H](O)[C@@H](O)[C@H]([C@H](O)[C@H](O)CO)O1 [Kdnα2-3GalβpNP] | 4.50 ± 0.45 | − (− represents <20% conversion) | – |
| CC(=O)NC1C(O)CC(OC2C(O)C(CO)OC(Oc3ccc([N+](=O)[O-])cc3)C2O)(C(=O)O)OC1C(F)C(O)CO (centres unmarked) [Neu5Ac7Fα2-3GalβpNP] | 91.0 ± 4.3 | + (+ represents >80% conversion) | – |
| COC(C(O)CO)C1OC(OC2C(O)C(CO)OC(Oc3ccc([N+](=O)[O-])cc3)C2O)(C(=O)O)CC(O)C1NC(C)=O (centres unmarked) [Neu5Ac7OMeα2-3GalβpNP] | 96.5 ± 1.7 | + (+ represents >80% conversion) | – |
| CC(=O)N[C@H]1[C@H](C[C@H](O)CO)O[C@@](O[C@H]2[C@@H](O)[C@@H](CO)O[C@@H](Oc3ccc([N+](=O)[O-])cc3)[C@@H]2O)(C(=O)O)C[C@@H]1O [Neu5Ac7deoxyα2-3GalβpNP] | 91.2 ± 1.8 | + (+ represents >80% conversion) | – |
| CC(=O)N[C@H]1[C@H]([C@H](O)[C@H](O)CF)O[C@@](O[C@H]2[C@@H](O)[C@@H](CO)O[C@@H](Oc3ccc([N+](=O)[O-])cc3)[C@@H]2O)(C(=O)O)C[C@@H]1O [Neu5Ac9Fα2-3GalβpNP] | 75.6 ± 3.9 | + (+ represents >80% conversion) | – |
| COCC(O)C(O)C1OC(OC2C(O)C(CO)OC(Oc3ccc([N+](=O)[O-])cc3)C2O)(C(=O)O)CC(O)C1NC(C)=O (centres unmarked) [Neu5Ac9OMeα2-3GalβpNP] | 88.5 ± 5.1 | + (+ represents >80% conversion) | – |
| CC(=O)NC1C(O)CC(OC2C(O)C(CO)OC(Oc3ccc([N+](=O)[O-])cc3)C2O)(C(=O)O)OC1C(O)C(C)O (centres unmarked) [Neu5Ac9deoxyα2-3GalβpNP] | 93.5 ± 3.1 | + (+ represents >80% conversion) | – |
| O=C(CF)NC1C(O)CC(OC2C(O)C(CO)OC(Oc3ccc([N+](=O)[O-])cc3)C2O)(C(=O)O)OC1C(O)C(O)CO (centres unmarked) [Neu5AcFα2-3GalβpNP] | 74.8 ± 3.2 | + (+ represents >80% conversion) | – |
| [N-]=[N+]=NCC(=O)N[C@H]1[C@H]([C@H](O)[C@H](O)CO)O[C@@](O[C@H]2[C@@H](O)[C@@H](CO)O[C@@H](Oc3ccc([N+](=O)[O-])cc3)[C@@H]2O)(C(=O)O)C[C@@H]1O [Neu5AcN3α2-3GalβpNP] | 87.9 ± 1.6 | + (+ represents >80% conversion) | – |
| COCC(=O)NC1C(O)CC(OC2C(O)C(CO)OC(Oc3ccc([N+](=O)[O-])cc3)C2O)(C(=O)O)OC1C(O)C(O)CO (centres unmarked) [Neu5AcOMeα2-3GalβpNP] | 81.8 ± 1.7 | + (+ represents >80% conversion) | – |
| O=C(CO)NC1C(O)CC(OC2C(O)C(CO)OC(Oc3ccc([N+](=O)[O-])cc3)C2O)(C(=O)O)OC1C(O)C(O)CF (centres unmarked) [Neu5Gc9Fα2-3GalβpNP] | 72.3 ± 2.6 | + (+ represents >80% conversion) | – |
| [N-]=[N+]=NCC(O)C(O)C1OC(OC2C(O)C(CO)OC(Oc3ccc([N+](=O)[O-])cc3)C2O)(C(=O)O)CC(O)C1NC(=O)CO (stereo not drawn) [Neu5Gc9N3α2-3GalβpNP] | 89.5 ± 3.5 | + (+ represents >80% conversion) | – |
| COCC(O)C(O)C1OC(OC2C(O)C(CO)OC(Oc3ccc([N+](=O)[O-])cc3)C2O)(C(=O)O)CC(O)C1NC(=O)CO (centres unmarked) [Neu5Gc9OMeα2-3GalβpNP] | 75.0 ± 1.9 | + (+ represents >80% conversion) | – |
| C[C@@H](O)[C@@H](O)[C@@H]1O[C@@](O[C@H]2[C@@H](O)[C@@H](CO)O[C@@H](Oc3ccc([N+](=O)[O-])cc3)[C@@H]2O)(C(=O)O)C[C@H](O)[C@H]1NC(=O)CO [Neu5Gc9deoxyα2-3GalβpNP] | 85.5 ± 1.4 | + (+ represents >80% conversion) | – |

— patent US11325936B2, “Sialidase inhibitors and preparation thereof” (The Regents of the University of California, priority 2017, dated 2022)
